For the first assay, the system named is Human Jurkat T-cells (clone N). Kind of assay: Jurkat T-cell activation (anti-TCR, CD69 upregulation).
Details: not given
The class given is cell-based. A digest of the protocol:
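Readout is CD69 upregulation by flow cytometry (anti-CD69-APC, 20 min at 4 °C) after 20 h anti-TCR (C305, 500 ng/ml) stimulation at 37 °C.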
The term IC50 denotes the concentration that inhibits the measured activity by half. As for `COC(=O)Cn1ncc2cc(Nc3ncc(F)c(Nc4ccc(OC(C)C)cc4)n3)ccc21` [Compound R935222], it took 3.54 µM to reach half-maximal inhibition (IC50).
Same read-out and setting: the result for `O=C1Nc2cc(Nc3nc(Cl)ncc3F)ccc2OC1(F)F` [Compound R940342] reads 5.12 µM; that for `CNC(=O)COc1cccc(Nc2ncc(F)c(Nc3ccc(F)c(C(F)(F)F)c3)n2)c1` [Compound R926838], 10.7 µM; that for `CNC(=O)COc1cccc(Nc2nc(Nc3cccc(C(C)(C)C)c3)ncc2F)c1` [Compound R940267], over 10 µM.
As for `O=C1CN=C2COc3ccc(Nc4nc(Nc5cccc(O)c5)ncc4F)cc3N12` [Compound R945236], the IC50 turned out to be 2.92 µM.
The same measure, in the same setting: the result for `COc1cc(C(=O)NS(=O)(=O)c2ccccc2C)ccc1Cn1ncc2ccc(Nc3ncc(F)c(Nc4ccc5c(c4)OCCO5)n3)cc21` [Compound R935323] reads over 10 µM; that for `CCOC(=O)COc1ccc(Nc2ncc(F)c(Nc3cccc(O)c3)n2)cc1` [Compound R926395], 17.7 µM.
The molecule `COc1ccc(Nc2nc(Nc3cccc(OCC(=O)NCC(O)CO)c3)ncc2F)cc1OC` (stereo not shown) [Compound R926734] came in with an IC50 of 11.3 µM.
On the same count and under the same terms, next, `COC(=O)COc1ccc(Nc2ncc(F)c(Nc3ccc4c(c3)OCCCO4)n2)cc1` [Compound R935182]: 23.9 µM; `Fc1cnc(Nc2ccc(OCCN3CCOCC3)cc2)nc1Nc1ccc2c(c1)OCCO2` [Compound R926709]: 2.47 µM; `CC(C)Oc1ccc(Nc2nc(Nc3ccc4c(cnn4CCCO)c3)ncc2F)cc1` [Compound R935307]: 1.41 µM.
The molecule `CNC(=O)CCn1ncc2cc(Nc3ncc(F)c(Nc4cccc(O)c4)n3)ccc21` [Compound R935305] displayed an IC50 of 1.83 µM.
`CNCCNC(=O)CNc1cccc(Nc2ncc(F)c(Nc3cccc(NCCO)c3)n2)c1` [Compound R950234]: the half-inhibitory concentration (IC50) is over 10 µM.
`CCOC(=O)c1cnc(Nc2cccc(OCC(=O)NC)c2)nc1Nc1ccc2c(c1)OCCO2` [Compound R926800] showed an IC50 of over 10 µM.
`COC(=O)c1ccc(Cn2ncc3ccc(Nc4ncc(F)c(Nc5ccc6c(c5)OCCO6)n4)cc32)c(OC)c1` [Compound R935320]: the IC50 is over 10 µM.
As to `CCOC(=O)COc1ccc(Nc2nc(Nc3ccc(OCC(=O)OCC)cc3)c(NC(=O)Nc3ccccc3)c(C(=O)OCC)n2)cc1` [Compound R926571], the IC50 was over 10 µM.
`Nc1cccc(Nc2nc(Nc3cccc(NCCOCc4ccccc4)c3)ncc2F)c1` [Compound R950176]: the IC50 was over 10 µM.
With `CC1(C)Oc2ccc(Nc3nc(Nc4cccc(O)c4)ncc3F)cc2NC1=O` [Compound R940346], the 50% inhibitory concentration (IC50) came out at 2.09 µM.
In turn, `CC(C)(CO)c1ccc(Nc2nc(Nc3ccc4c(c3)OCCO4)ncc2F)cc1` [Compound R935149] displayed an IC50 of over 10 µM.
Molecule `CNC(=O)COc1cccc(Nc2ncc(F)c(Nc3ccc4c(c3)-n3ccnc3CO4)n2)c1` [Compound R935271] yielded an IC50 of 0.858 µM.
In turn, `O=C(COc1ccc(Nc2nc(Nc3cccc(O)c3)ncc2Br)cc1)NCC1CC1` [Compound R925842] had an IC50 of over 10 µM.
`CC(=NO)c1cccc(Nc2ncc(F)c(Nc3cccc(C(C)=NO)c3)n2)c1` [Compound R950379] gave an IC50 of 0.878 µM.
`CC(C)Oc1ccc(Nc2ncc(F)c(Nc3ccc(OCc4nc(-c5ccccc5)no4)cc3)n2)cc1` [Compound R935139] registered an IC50 of 11 µM.
`COC(=O)COc1cccc(Nc2ncc(F)c(Nc3cccc(OCC(=O)OC)c3)n2)c1` [Compound R926255]: the IC50 is over 10 µM.
Consider `CSc1nc(Nc2ccc3c(c2)OCCO3)nc(Nc2ccc3c(c2)OCCO3)c1Cl` [Compound R926475], for which the half-maximal inhibitory concentration (IC50) was over 10 µM.
Same read-out and setting: the result for `CC(C)(CO)c1ccc(Nc2ncc(F)c(Nc3ccc4oc(CO)cc4c3)n2)cc1` [Compound R935177] reads 4.15 µM; that for `Fc1cnc(Nc2ccc3[nH]ncc3c2)nc1Nc1ccc2c(c1)OCCO2` [Compound R935198], 1.45 µM.
The molecule `Cc1cc(Nc2nc(Nc3cccc(OCC(=O)N4CCOCC4)c3)ncc2F)cc(Cl)c1O` [Compound R940265] registered an IC50 of 5.56 µM.
With `CNC(=O)COc1cccc(Nc2nc(Nc3ccc4c(c3)OCCO4)ncc2F)c1` [Compound R926776], it took 12.5 µM to reach half-maximal inhibition (IC50).
For the molecule `Cc1noc(COc2cccc(Nc3nc(Nc4cccc(O)c4)ncc3F)c2)n1` [Compound R945130], the IC50 was over 10 µM.
`CNC(=O)COc1ccc(Nc2ncc(F)c(Nc3ccc(C(C)(C)C)cc3)n2)cc1` [Compound R926712] yielded an IC50 of 6.35 µM.

Staying with this assay, now noted: Homo sapiens.
The molecule `Fc1cnc(Nc2ccc3cc[nH]c3c2)nc1Nc1ccc2cc[nH]c2c1` [Compound R926594] yielded an IC50 of 1.25 µM.

Staying with this assay, now noted: Homo sapiens, Jurkat.
In turn, `COC(=O)c1cc(N)cc(Nc2ncc(F)c(Nc3cc(N)cc(C(=O)OC)c3)n2)c1` [Compound R950134] had an IC50 of 6.46 µM.
In turn, `Oc1cccc(Nc2nc(NCCN3CCN(Cc4ccccc4)CC3)ncc2F)c1` [Compound R940261] had a 50% inhibitory concentration (IC50) of 10.9 µM.
`CC(=O)Nc1cccc(Nc2ncc(F)c(Nc3cccc(NC(C)=O)c3)n2)c1` [Compound R926682] yielded an IC50 of 5.95 µM.
On to `Cc1c(O)ccc(Nc2ncc(F)c(Nc3ccc(O)c(C)c3C)n2)c1C` [Compound R940217], for which the IC50 was over 10 µM.
Same read-out and setting: next, `COc1ccc(Nc2ncc(F)c(Nc3ccc4c(c3)OCCO4)n2)c(OC)c1` [Compound R926789]: over 10 µM; `CC(Nc1nc(Nc2cccc(O)c2)ncc1Br)c1ccc(F)cc1` (racemic) [Compound R935023]: over 10 µM; `COc1ccc(Nc2nc(Nc3cccc(C(C)(C)C)c3)ncc2F)cc1OC` [Compound R940260]: over 10 µM.
With `Oc1cccc(Nc2ncc(F)c(Nc3ccc(Cl)nc3)n2)c1` [Compound R927018], the IC50 was found to be 17.7 µM.
Molecule `CC(C)(CO)c1ccc(Nc2ncc(F)c(Nc3cccc(O)c3)n2)cc1` [Compound R935153] came in with an IC50 of 7.07 µM.
The molecule `COc1cccc(Nc2ncc(F)c(Nc3cccc(OC)c3)n2)c1` [Compound R926065] registered an IC50 of 6.73 µM.
`CC(C)(CO)c1ccc(Nc2nc(Nc3cccc(OCCO)c3)ncc2F)cc1` [Compound R935161] showed an IC50 of 3.13 µM.
Still for that read-out and setting: next, `Fc1cnc(Nc2ccc(N3CCN(Cc4ccccc4)CC3)cc2)nc1Nc1ccc2c(c1)OCCO2` [Compound R945163]: over 10 µM; `c1cc(Nc2ccc3c(c2)OCCO3)nc(Nc2ccc3c(c2)OCCO3)n1` [Compound R926243]: 2.99 µM.
Take `COC(=O)c1cc(Nc2ncc(F)c(Nc3ccc(OC)c(C(=O)OC)c3)n2)ccc1OC` [Compound R945066]: half-maximal inhibition (IC50) was put at 43.2 µM.
In turn, `Oc1c(Cl)cc(Nc2ncc(F)c(Nc3cc(Cl)c(O)c(Cl)c3)n2)cc1Cl` [Compound R940215] came in with an IC50 of over 10 µM.
Take `Cc1c(O)cccc1Nc1ncc(F)c(Nc2cccc(O)c2C)n1` [Compound R945038]: the IC50 was over 10 µM.
The same measure, in the same setting: the result for `OC(CNc1ncc(F)c(NCC(O)c2ccccc2)n1)c1ccccc1` (stereo not shown) [Compound R925768] reads over 10 µM; that for `Oc1cccc(Nc2nc(NCc3ccc4c(c3)CCO4)ncc2F)c1` [Compound R950213], over 10 µM; that for `Cc1cc(CNc2nc(Nc3cccc(O)c3)ncc2F)c(C)o1` [Compound R945151], over 10 µM.
On the same count and under the same terms, the result for `Oc1ccc(-c2cnc(Nc3ccc4c(c3)OCCO4)nc2Nc2ccc3c(c2)OCCO3)cc1` [Compound R925816] reads 4.66 µM.

For the origin of these results see patent US8158621B2, “Methods of treating or preventing autoimmune diseases with 2,4-pyrimidinediamine compounds” (Rigel Pharmaceuticals, Inc., priority 2002, dated 2012).
